Test system: STC-1 (intestinal endocrine cell line)
Experiment: CCK release from STC-1 intestinal endocrine cell line
Assay type: cell-based
Settings: compared with a partial hydrolysate (Gentlease) or free amino acids

Substance	CCK release from STC-1 cells
DISLLDAQSAPLR [specific peptide from a casein hydrolysate of the present disclosure]	may stimulate CCK release
ALPMHIR [specific peptide from a casein hydrolysate of the present disclosure]	may stimulate CCK release
GPVRGPFP [specific peptide from a casein hydrolysate of the present disclosure]	may stimulate CCK release

— patent US9289461B2, “Reducing the risk of autoimmune disease” (Mead Johnson Nutrition (Asia Pacific) Pte. Ltd., priority 2013, dated 2016)
